# Patent US20250281457A1, “TREATMENT OR PREVENTION OF DENGUE VIRAL INFECTION” (Janssen Pharmaceuticals, Inc., priority 2022, published 2025)
# Like-named read-outs stand apart in the source and are kept apart here.
# Experiment: Plasma pharmacokinetics with loading dose and weekly or twice weekly maintenance dosing, fed (Example 5)
# Format: in vivo, human
# Settings: for AUC: read-out: Mean AUCτ (SD); for Tmax: read-out: Median tmax (min-max); for Cmax: read-out: Mean Cmax (SD)
# Protocol: A pharmaceutical formulation comprising Compound (a) as described in Example 2 (SF2a/b) was administered as an oral dosage form, to healthy adult participants, in a fed state. Four dose regimens were applied: • Panel I (weekly dosing): 450 mg of Compound (a) twice a day (BID) for two days: on day 1 (D1) and on day 2 (D2) (loading dose); and then 900 mg once a week (Q7D), on day 3 (D3), day 10 (D10), day 17 (D17), and on day 24 (D24) (maintenance dose). • Panel II (biweekly dosing): 450 mg of Compound (a) twice a day (BID) for two days: on day 1 (D1) and on day 2 (D2); (loading dose) and then 450 mg once every 3 (Q3D) or 4 days (Q4D): on day 3 (D3), on day 6 (D6), on day 10 (D10), on day 13 (D13), on day 17 (D17), on day 20 (D20), on day 24 (D24), and on day 27 (D27), for a total of 900 mg each week administered through two doses of 450 mg each (maintenance dose). • Panel III (weekly dosing): 150 mg of Compound (a) twice a day (BID) for two days: on day 1 (D1) and on day 2 (D2) (loading dose); and then 300 mg once a week (Q7D): on day 3 (D3), day 10 (D10), day 17 (D17), and on day 24 (D24) (maintenance dose). • Panel IV (biweekly dosing): 150 mg of Compound (a) twice a day (BID) for two days: on day 1 (D1) and on day 2 (D2) (loading dose); and then 150 mg Q3D or Q4D: on day 3 (D3), on day 6 (D6), on day 10 (D10), on day 13 (D13), on day 17 (D17), on day 20 (D20), on day 24 (D24), and on day 27 (D27), for a total of 300 mg each week administered through two doses of 150 mg each (maintenance dose).
# Oral dosage forms were administered together with approximately 240 mL of non-carbonated water under fed conditions, and were taken within 10 minutes after completion of normal standardized normal fat breakfast in the morning or after completion of normal standardized normal fat dinner in case of evening dosing. Intake of Compound (a) took place at around the same time each day. Intake of Compound (a) marked time 0 hours.
# A standardized normal fat meal was served approximately 30 minutes before study drug intake. The standardized normal fat meal contained approximately 21 g of fat, 67 g of carbohydrates, 19 g of proteins resulting in around 533 kcal (an example meal is 4 slices of bread, 2 slices of ham or cheese, butter, jelly, and 1 or 2 cups (up to 355 mL) of decaffeinated coffee or tea with milk and/or sugar). The standardized normal fat meal was ingested entirely within 30 minutes or less. Within 10 minutes after completing the meal, but no more than 30 minutes after the start of the meal, study drug was administered. In case of Compound (a) intake in the evening, timing of standardized dinner was aligned to time of drug intake. […]
# For Study Panel 1 only, additional whole blood samples were be collected on Days 1, 24, 25, 26, 38, 45, 51, and 59 using venipuncture. The whole blood samples were be used for the determination of Compound (a) whole blood concentrations and for determination of Compound (a) plasma concentrations. To determine Compound (a) venous whole blood concentrations, an aliquot of the whole blood sample was be pipetted onto the TASSO M-20 for better comparison with capillary whole blood samples collected by TASSO M-20. […]
# Separation between metabolites and interfering endogenous compounds was achieved by injecting 2 μL sample extract onto an Acquity UPLC BEH C18 column (50×2.1 mm, 1.7 μm, Waters) at 50° C. and using 10 mM ammonium bicarbonate solution as mobile phase A, and methanol: acetonitrile (50:50, v/v) as mobile phase B. A gradient elution at a flow rate of 0.600 mL/min was applied using the following program: 35% B was increased to 90% B in 3 min, was further increased to 98% B at 3.01 min and held constant up to 4.00 min.
# A Triple Quad 6500+ mass spectrometer (Sciex) equipped with a turbo ion spray source was used for analyte detection in positive ion mode using electrospray ionization. […]
# [1] = Panel I (450 mg BID Days 1-2, then 900 mg Q7D; SF2a/b, fed), Day 2
# [2] = Panel II (450 mg BID Days 1-2, then 450 mg Q3D/Q4D; SF2a/b, fed), Day 2
# [3] = Panel III (150 mg BID Days 1-2, then 300 mg Q7D; SF2a/b, fed), Day 2
# [4] = Panel IV (150 mg BID Days 1-2, then 150 mg Q3D/Q4D; SF2a/b, fed), Day 2
# [5] = human, plasma, oral, 150 mg, Panel III (150 mg BID Days 1-2, then 300 mg Q7D; SF2a/b, fed), Day 1
# [6] = human, plasma, oral, 150 mg, Panel III (150 mg BID Days 1-2, then 300 mg Q7D; SF2a/b, fed), Day 2
# [7] = human, plasma, oral, 150 mg, Panel IV (150 mg BID Days 1-2, then 150 mg Q3D/Q4D; SF2a/b, fed), Day 3
# [8] = human, plasma, oral, 150 mg, Panel IV (150 mg BID Days 1-2, then 150 mg Q3D/Q4D; SF2a/b, fed), Day 27
compound,measurement,setting,value
COc1cc(NC(C(=O)c2c[nH]c3ccc(OC(F)(F)F)cc23)c2ccc(Cl)cc2OC)cc(S(C)(=O)=O)c1 (centres unmarked) [Compound (a)],Mean Cmin (SD),"Panel I (450 mg BID Days 1-2, then 900 mg Q7D; SF2a/b, fed), Day 1",0.000 (0.000) ng/mL
same,Mean Cmin (SD),[1],2750 (1089) ng/mL
same,Mean Ctrough (SD),[1],2780 (1047) ng/mL
same,Mean Ctrough (SD),"Panel I (450 mg BID Days 1-2, then 900 mg Q7D; SF2a/b, fed), Day 3",4370 (976) ng/mL
same,Mean Ctrough (SD),"Panel I (450 mg BID Days 1-2, then 900 mg Q7D; SF2a/b, fed), Day 10",1965 (35.4) ng/mL
same,Mean Ctrough (SD),"Panel I (450 mg BID Days 1-2, then 900 mg Q7D; SF2a/b, fed), Day 17",1500 (113) ng/mL
same,Mean Cmin (SD),"Panel II (450 mg BID Days 1-2, then 450 mg Q3D/Q4D; SF2a/b, fed), Day 1",0.000 (0.000) ng/mL
same,Mean Cmin (SD),[2],2492 (307) ng/mL
same,Mean Ctrough (SD),[2],2503 (293) ng/mL
same,Mean Ctrough (SD),"Panel II (450 mg BID Days 1-2, then 450 mg Q3D/Q4D; SF2a/b, fed), Day 3",4132 (401) ng/mL
same,Mean Ctrough (SD),"Panel II (450 mg BID Days 1-2, then 450 mg Q3D/Q4D; SF2a/b, fed), Day 6",2708 (429) ng/mL
same,Mean Ctrough (SD),"Panel II (450 mg BID Days 1-2, then 450 mg Q3D/Q4D; SF2a/b, fed), Day 10",2340 (577) ng/mL
same,Mean Ctrough (SD),"Panel II (450 mg BID Days 1-2, then 450 mg Q3D/Q4D; SF2a/b, fed), Day 13",2343 (639) ng/mL
same,Mean Ctrough (SD),"Panel II (450 mg BID Days 1-2, then 450 mg Q3D/Q4D; SF2a/b, fed), Day 17",2088 (693) ng/mL
same,Mean Ctrough,"Panel II (450 mg BID Days 1-2, then 450 mg Q3D/Q4D; SF2a/b, fed), Day 20",2270 (652) ng/mL
same,Mean Ctrough (SD),"Panel II (450 mg BID Days 1-2, then 450 mg Q3D/Q4D; SF2a/b, fed), Day 24",2016 (847) ng/mL
same,Mean Ctrough (SD),"Panel II (450 mg BID Days 1-2, then 450 mg Q3D/Q4D; SF2a/b, fed), Day 27",1928 (605) ng/mL
same,Mean Cmin (SD),"Panel III (150 mg BID Days 1-2, then 300 mg Q7D; SF2a/b, fed), Day 1",0.000 (0.000) ng/mL
same,Mean Cmin (SD),[3],899 (151) ng/mL
same,Mean Ctrough (SD),[3],899 (151) ng/mL
same,Mean Ctrough (SD),"Panel III (150 mg BID Days 1-2, then 300 mg Q7D; SF2a/b, fed), Day 3",1582 (298) ng/mL
same,Mean Ctrough (SD),"Panel III (150 mg BID Days 1-2, then 300 mg Q7D; SF2a/b, fed), Day 10",775 (99.3) ng/mL
same,Mean Ctrough (SD),"Panel III (150 mg BID Days 1-2, then 300 mg Q7D; SF2a/b, fed), Day 17",700 (98.1) ng/mL
same,Mean Cmin (SD),"Panel IV (150 mg BID Days 1-2, then 150 mg Q3D/Q4D; SF2a/b, fed), Day 1",0.000 (0.000) ng/mL
same,Mean Cmin (SD),[4],892 (257) ng/mL
same,Mean Ctrough (SD),[4],892 (257) ng/mL
same,Mean Ctrough (SD),"Panel IV (150 mg BID Days 1-2, then 150 mg Q3D/Q4D; SF2a/b, fed), Day 3",1472 (385) ng/mL
same,Mean Ctrough (SD),"Panel IV (150 mg BID Days 1-2, then 150 mg Q3D/Q4D; SF2a/b, fed), Day 6",865 (236) ng/mL
same,Mean Ctrough (SD),"Panel IV (150 mg BID Days 1-2, then 150 mg Q3D/Q4D; SF2a/b, fed), Day 10",681 (234) ng/mL
same,Mean Ctrough (SD),"Panel IV (150 mg BID Days 1-2, then 150 mg Q3D/Q4D; SF2a/b, fed), Day 13",689 (238) ng/mL
same,Mean Ctrough (SD),"Panel IV (150 mg BID Days 1-2, then 150 mg Q3D/Q4D; SF2a/b, fed), Day 17",570 (269) ng/mL
same,Mean Ctrough,"Panel IV (150 mg BID Days 1-2, then 150 mg Q3D/Q4D; SF2a/b, fed), Day 20",710 (236) ng/mL
same,Mean Ctrough (SD),"Panel IV (150 mg BID Days 1-2, then 150 mg Q3D/Q4D; SF2a/b, fed), Day 24",612 (239) ng/mL
same,Mean Ctrough (SD),"Panel IV (150 mg BID Days 1-2, then 150 mg Q3D/Q4D; SF2a/b, fed), Day 27",623 (237) ng/mL
same,maintaining exposures over time with weekly or twice weekly dosing,"Panels I-IV, fed",feasible to maintain Compound (a) exposures over time
same,AUC,[5],5680 ng·h/mL
same,Tmax,[5],5 h
same,AUC,[6],16800 ng·h/mL
same,Cmax,[6],1810 ng/mL
same,Tmax,[6],5 h
same,Cmax,"human, plasma, oral, 150 mg, Panel IV (150 mg BID Days 1-2, then 150 mg Q3D/Q4D; SF2a/b, fed), Day 1",753 ng/mL
same,AUC(0-t),"human, plasma, oral, 150 mg, Panel IV (150 mg BID Days 1-2, then 150 mg Q3D/Q4D; SF2a/b, fed), Day 3, read-out: Mean AUC24 h (SD)",38600 ng·h/mL
same,AUC(0-t),"human, plasma, oral, 150 mg, Panel IV (150 mg BID Days 1-2, then 150 mg Q3D/Q4D; SF2a/b, fed), Day 3, read-out: Mean AUC72 h (SD)",89200 ng·h/mL
same,Cmax,[7],2120 ng/mL
same,Tmax,[7],5 h
same,Cmax,"human, plasma, oral, 150 mg, Panel IV (150 mg BID Days 1-2, then 150 mg Q3D/Q4D; SF2a/b, fed), Day 6",1460 ng/mL
same,Cmax,"human, plasma, oral, 150 mg, Panel IV (150 mg BID Days 1-2, then 150 mg Q3D/Q4D; SF2a/b, fed), Day 10",1230 ng/mL
same,Cmax,"human, plasma, oral, 150 mg, Panel IV (150 mg BID Days 1-2, then 150 mg Q3D/Q4D; SF2a/b, fed), Day 13",1180 ng/mL
same,Cmax,"human, plasma, oral, 150 mg, Panel IV (150 mg BID Days 1-2, then 150 mg Q3D/Q4D; SF2a/b, fed), Day 17, n = 3",1210 ng/mL
same,Cmax,"human, plasma, oral, 150 mg, Panel IV (150 mg BID Days 1-2, then 150 mg Q3D/Q4D; SF2a/b, fed), Day 20",1200 ng/mL
same,Cmax,"human, plasma, oral, 150 mg, Panel IV (150 mg BID Days 1-2, then 150 mg Q3D/Q4D; SF2a/b, fed), Day 24",1260 ng/mL
same,AUC(0-t),"human, plasma, oral, 150 mg, Panel IV (150 mg BID Days 1-2, then 150 mg Q3D/Q4D; SF2a/b, fed), Day 27, read-out: Mean AUC24 h (SD)",26000 ng·h/mL
same,AUC(0-t),"human, plasma, oral, 150 mg, Panel IV (150 mg BID Days 1-2, then 150 mg Q3D/Q4D; SF2a/b, fed), Day 27, read-out: Mean AUC72 h (SD)",65800 ng·h/mL
same,AUC(0-t),"human, plasma, oral, 150 mg, Panel IV (150 mg BID Days 1-2, then 150 mg Q3D/Q4D; SF2a/b, fed), Day 27, read-out: Mean AUClast (SD)",258000 ng·h/mL
same,AUC(0-inf),"human, plasma, oral, 150 mg, Panel IV (150 mg BID Days 1-2, then 150 mg Q3D/Q4D; SF2a/b, fed), Day 27, read-out: Mean AUC∞ (SD)",274000 ng·h/mL
same,Cmax,[8],1380 ng/mL
same,Tmax,[8],5 h
same,AUC(0-t),"human, plasma, oral, 300 mg, Panel III (150 mg BID Days 1-2, then 300 mg Q7D; SF2a/b, fed), Day 3, read-out: Mean AUC24 h (SD)",52400 ng·h/mL
same,AUC(0-t),"human, plasma, oral, 300 mg, Panel III (150 mg BID Days 1-2, then 300 mg Q7D; SF2a/b, fed), Day 3, read-out: Mean AUC72 h (SD)",122000 ng·h/mL
